From patent publication US10000487B2, “Heterocyclic compounds that inhibit the kinase activity of Mnk useful for treating various cancers” (eFFECTOR Therapeutics, Inc., priority 2015, dated 2018) come the findings set out here.

Assay [1] deals with recombinant MNK1 (Homo sapiens (Human), UniProt Q9BUB5). Description: MNK biochemical enzymatic assay (ADP-Glo), MNK1. Also noted: key to MNK1 IC50: IC50 values of less than 0.01 μM are labelled as “+++”; from 0.01 to 0.10 μM are labelled as “++”; from 0.1 to 10 μM are labelled as “+”; Inactive: greater than 10 μM are labelled inactive. The conditions noted are these: 10 nM MNK1, 300 μM ATP. Here is the method:
(§1) Compounds are screened for MNK inhibition using the ADP-Glo kinase assay kit (Promega, catalogue No. V9101). All kinase reactions are performed in Reaction Buffer E (15 mM HEPES pH7.4, 20 mM NaCl, 1 mM EGTA, 10 mM MgCl2, 0.1 mg/ml BGG, and 0.02% Tween-20). Final MNK1 reactions contained 10 nM recombinant MNK1 (Life Technologies, PR9138A), 100 μM MNK substrate peptide Ac-TATKSGSTTKNR-NH2 (American Peptide Company), 300 μM ATP, and varying concentrations of the inhibitory compound of interest. Final MNK2 reactions contained 3 nM recombinant MNK2 (Life Technologies, PV5607), 50 μM MNK substrate peptide Ac-TATKSGSTTKNR-NH2 (American Peptide Company), 10 μM ATP, and varying concentrations of the inhibitory compound of interest. Final DMSO concentration in each reaction is 1%.
(§2) Kinase reactions are carried out in 96-well half-area white flat-bottom polystyrene plates in a final volume of 25 μl. MNK1/2 enzymes are pre-incubated with compound and peptide substrate for 5 minutes prior to the addition of ATP. After the addition of ATP, kinase reactions are incubated at room temperature for 40 minutes. Reactions are subsequently stopped by the addition of 25 μl of ADP-Glo Reagent and incubating for an additional 40 minutes. The final luminescent signal used for kinase activity readout is produced by the addition of 45 μl of Kinase Detection Reagent (ADP-Glo kit, Promega) and incubating for 40 minutes. The luminescent signal is detected using a Victor 2 multilabel counter (Perkin Elmer) and the concentration of compound necessary to achieve inhibition of enzyme activity by 50% (IC50) is calculated using signals from an 8-point compound dilution series.
(ADP-Glo turns the ADP formed in a reaction into a luminescent signal.)

The target in assay [2] is recombinant MNK2 (Homo sapiens (Human), UniProt Q9HBH9). As to the kind of experiment: MNK biochemical enzymatic assay (ADP-Glo), MNK2. The conditions noted are these: 3 nM MNK2, 10 μM ATP. Here is the method: as §1, §2
Assay [3] deals with Phosphorylated eIF4E. Description: peIF4E signaling cellular assay (CisBio HTRF). The conditions noted are these: 2 hrs incubation at 37° C. Format: cell-based. Here is the method:
Phosphorylated eIF4E is assayed using the CisBio peIF4E HTRF® assay kit (CisBio, catalogue No. 64EF4PEG). Cells are plated in 96-well tissue-culture treated plate in appropriate growth medium (90 μL). Compounds (10×) are diluted using 3-fold serial dilutions in cell culture medium and added to cells. Plates are incubated for 2 hrs at 37° C. The cell supernatant is carefully removed either by aspirating supernatant or by flicking the plate. Immediately 50 μL of supplemented lysis buffer (1×) is added and incubated for at least 30 minutes at room temperature under shaking. After homogenization by pipeting up and down, 16 μL of cell lysate is transferred from the 96-well cell-culture plate to a 384-well small volume white plate. 4 μL of premixed antibody solutions (vol/vol) is prepared in the detection buffer and added. The plate is covered with a plate sealer and incubated overnight at room temperature. The fluorescence emissions at two different wavelengths are read (665 nm and 620 nm) on a Wallac Victor2. Emission ratios are converted into percent inhibitions and imported into GraphPad Prism software. […] IC50 values are determined using a nonlinear regression model available in GraphPad Prism 5.

Sequence of recombinant MNK2 (Q9HBH9 whole entry): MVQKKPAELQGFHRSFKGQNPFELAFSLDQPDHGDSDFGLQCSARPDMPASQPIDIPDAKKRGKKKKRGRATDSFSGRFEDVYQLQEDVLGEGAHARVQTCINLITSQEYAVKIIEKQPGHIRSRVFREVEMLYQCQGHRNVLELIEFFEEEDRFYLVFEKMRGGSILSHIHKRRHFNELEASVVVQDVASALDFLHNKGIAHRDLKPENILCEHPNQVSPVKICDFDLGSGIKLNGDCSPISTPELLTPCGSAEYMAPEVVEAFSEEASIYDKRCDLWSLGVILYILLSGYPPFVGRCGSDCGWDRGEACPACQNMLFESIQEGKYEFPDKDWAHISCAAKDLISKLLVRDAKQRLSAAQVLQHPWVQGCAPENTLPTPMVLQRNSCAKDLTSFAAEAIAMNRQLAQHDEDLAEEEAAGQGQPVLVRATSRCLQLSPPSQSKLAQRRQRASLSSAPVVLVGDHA
Sequence of recombinant MNK1 (Q9BUB5 whole entry): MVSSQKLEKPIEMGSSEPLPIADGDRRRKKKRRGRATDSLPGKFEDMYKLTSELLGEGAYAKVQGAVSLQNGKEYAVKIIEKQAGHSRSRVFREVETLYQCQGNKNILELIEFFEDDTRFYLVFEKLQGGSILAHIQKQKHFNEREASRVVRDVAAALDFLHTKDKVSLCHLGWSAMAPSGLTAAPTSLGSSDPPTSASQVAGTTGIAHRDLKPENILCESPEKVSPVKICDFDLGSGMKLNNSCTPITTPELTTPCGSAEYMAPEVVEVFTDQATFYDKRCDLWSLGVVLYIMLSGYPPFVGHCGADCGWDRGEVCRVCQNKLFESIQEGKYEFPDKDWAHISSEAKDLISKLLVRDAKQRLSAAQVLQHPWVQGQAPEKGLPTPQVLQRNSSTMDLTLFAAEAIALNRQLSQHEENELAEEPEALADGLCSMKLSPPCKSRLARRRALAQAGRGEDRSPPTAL

`O=C1NC2(CCCCC2)n2c1c(Cl)cc(Nc1nncs1)c2=O` [1F, 6′-((1,3,4-thiadiazol-2-yl)amino)-8′-chloro-2′H-spiro[cyclohexane-1,3′-imidazo[1,5-a]pyridine]-1′,5′-dione]: the half-inhibitory concentration (IC50) in assay [1] lay in the range of 100 to 10000 nM; in assay [2], 10 to 100 nM; in assay [3] it was 100 to 100000 nM.
The corresponding values for `O=C1NC2(CCCCC2)n2c1c(Cl)cc(Nc1ncns1)c2=O` [2F, 6′-((1,2,4-thiadiazol-5-yl)amino)-8′-chloro-2′H-spiro[cyclohexane-1,3′-imidazo[1,5-a]pyridine]-1′,5′-dione] are 10 to 100 nM, below 10 nM and 100 to 100000 nM.
As for `O=C1NC2(CCCCC2)n2c1c(Cl)cc(Nc1ncn[nH]1)c2=O` [4F, 6′-((1H-1,2,4-triazol-5-yl)amino)-8′-chloro-2′H-spiro[cyclohexane-1,3′-imidazo[1,5-a]pyridine]-1′,5′-dione], the 50% inhibitory concentration (IC50) in assay [1] fell in the range of 100 to 10000 nM; in assay [2], 10 to 100 nM.
For the compound `O=C1NC2(CCCCC2)n2c1c(Cl)cc(Nc1cnns1)c2=O` [compound 3, 6′-((1,2,3-thiadiazol-5-yl)amino)-8′-chloro-2′H-spiro[cyclohexane-1,3′-imidazo[1,5-a]pyridine]-1′,5′-dione], the “MNK1 IC50” value in assay [1] is “Inactive”. Moreover, the values for the IC50 in assay [2] and in assay [3] were 10 to 100 nM and 100 to 100000 nM, respectively.
As for `O=C1NC2(CCCCC2)n2c1c(Cl)cc(Nc1cncs1)c2=O` [compound 5, 8′-chloro-6′-(thiazol-5-ylamino)-2′H-spiro[cyclohexane-1,3′-imidazo[1,5-a]pyridine]-1′,5′-dione], the concentration for half-maximal inhibition (IC50) in assay [1] lay in the range of 100 to 10000 nM; in assay [2], 10 to 100 nM.
Consider `O=C1NC2(CCCCC2)n2c1c(Cl)cc(Nc1cnsn1)c2=O` [compound 6, 6′-((1,2,5-thiadiazol-3-yl)amino)-8′-chloro-2′H-spiro[cyclohexane-1,3′-imidazo[1,5-a]pyridine]-1′,5′-dione], for which the values for the IC50 in assay [2] and in assay [3] were below 10 nM and 100 to 100000 nM, respectively.
The corresponding values for `Cn1ncc(Nc2cc(Cl)c3n(c2=O)C2(CCCCC2)NC3=O)n1` [compound 7, 8′-chloro-6′-((2-methyl-2H-1,2,3-triazol-4-yl)amino)-2′H-spiro[cyclohexane-1,3′-imidazo[1,5-a]pyridine]-1′,5′-dione] are below 10 nM and 100 to 100000 nM.
Consider `O=C1NC2(CCCCC2)n2c1c(Cl)cc(Nc1nnco1)c2=O` [compound 8, 6′-((1,3,4-oxadiazol-2-yl)amino)-8′-chloro-2′H-spiro[cyclohexane-1,3′-imidazo[1,5-a]pyridine]-1′,5′-dione], for which the figures for the 50% inhibitory concentration (IC50) in assay [1], in assay [2] and in assay [3] were 100 to 10000 nM, 100 to 10000 nM and 100 to 100000 nM, respectively.
With `O=C1NC2(CCCCC2)n2c1c(Cl)cc(Nc1cn[nH]n1)c2=O` [compound 9, 6′-((2H-1,2,3-triazol-4-yl)amino)-8′-chloro-2′H-spiro[cyclohexane-1,3′-imidazo[1,5-a]pyridine]-1′,5′-dione], the results for the half-inhibitory concentration (IC50) in assay [1], in assay [2] and in assay [3] were 10 to 100 nM, below 10 nM and 100 to 100000 nM, respectively.
In the case of `O=C1NC2(CCCCC2)n2c1c(Cl)cc(Nc1ncncn1)c2=O` [compound 11, 6′-((1,3,5-triazin-2-yl)amino)-8′-chloro-2′H-spiro[cyclohexane-1,3′-imidazo[1,5-a]pyridine]-1′,5′-dione], the half-maximal inhibitory concentration (IC50) is below 10 nM in assay [2] and 10 to 100 nM in assay [3].
The corresponding values for `Nc1cc(Nc2cc(Cl)c3n(c2=O)C2(CCCCC2)NC3=O)ccn1` [compound 13, 6′-((2-aminopyridin-4-yl)amino)-8′-chloro-2′H-spiro[cyclohexane-1,3′-imidazo[1,5-a]pyridine]-1′,5′-dione] are 10 to 100 nM and 100 to 100000 nM.

The term IC50 denotes the point on the concentration scale where inhibition reaches its midpoint.
